The target in assay [1] is T1, HCV polymerase (NS5B) type 1b (Hepatitis C virus genotype 1b, UniProt P26663).
T1 construct: a region encoding NS5B (J Virol 1991 March, 65(3), 1105-13, 544 amino acids after deletion of 47 amino acids on the C-terminal); 6xHis (C); made in house; host or cells: Escherichia coli
The assay can be described thus: Assay of enzyme (HCV polymerase) inhibitory activity, type 1b enzyme. The assay is classed as biochemical, HCV BK strain (type 1b). The following applies: HCV polymerase inhibitory activity (IC50), 1b, type 1b enzyme 0.5 μg/ml, 25° C., 60 min. In short, it runs like this: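 NS5B from HCV BK strain (type 1b), C-terminal 47 aa deleted, C-terminal His6-tagged, E. coli-expressed, 0.5 μg/ml, with ~450 nt substrate RNA carrying the 3′ UTR (polyU, 3′X) at 5 μg/ml. Incubation 60 min at 25 °C with 50 μM ATP/GTP/CTP, 2 μM UTP plus [3H]UTP, pH 7.5 Tris.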

Assay [2] addresses T2, HCV polymerase (NS5B) type 1a (Hepatitis C virus genotype 1a, UniProt P26664).
T2 construct: made in house; host or cells: Escherichia coli (by the 'similar method' of the 1b enzyme)
Briefly: Assay of enzyme (HCV polymerase) inhibitory activity, type 1a enzyme. In kind it is biochemical, HCV type 1a (cloned from the blood of patients). The conditions noted are these: HCV polymerase inhibitory activity (IC50), 1a, type 1a enzyme 1.5 μg/ml, 25° C., 60 min. In a few lines: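 Patient-derived type 1a NS5B (C-terminal 47-aa deletion, His-tagged, E. coli-expressed) at 1.5 μg/ml was reacted with 5 μg/ml 3′UTR-containing substrate RNA, 50 μM ATP/GTP/CTP, 2 μM UTP plus [3H]UTP, pH 7.5, 25° C for 60 min. TCA-precipitated RNA radioactivity was counted; IC50 from ± compound.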

Structures can show the parent of a compound that is named as a salt. Bounds are passed on as bounds.

On to `CC(C)c1ccc(CNC(=O)[C@H]2CN(c3n[nH]c(C(=O)O)c3Cl)CCN2S(=O)(=O)c2ccc(C(F)(F)F)cc2)cc1` [Example 427, 4-chloro-5-[(R)-3-(4-isopropyl-benzylcarbamoyl)-4-(4-trifluoromethyl-benzenesulfonyl)-piperazin-1-yl]-2H-pyrazole-3-carboxylic acid], for which the half-inhibitory concentration (IC50) in assay [1] and in assay [2] was more than 1000 nM in each case.
`CC(=O)N1CCN(S(=O)(=O)c2ccc(CC3CC3)cc2)[C@@H](C(=O)NCc2ccc(C(C)C)cc2)C1` [Example 428, (R)-4-acetyl-1-(4-cyclopropylmethyl-benzenesulfonyl)-piperazine-2-carboxylic acid 4-isopropyl-benzylamide]: the IC50 in assay [1] and in assay [2] was less than 100 nM in each case.
As to `CCCc1ccc(S(=O)(=O)N2CCN(C(C)=O)C[C@@H]2C(=O)NCc2ccc(C(C)C)cc2)c(F)c1` [Example 429, (R)-4-acetyl-1-(2-fluoro-4-propyl-benzenesulfonyl)-piperazine-2-carboxylic acid 4-isopropyl-benzylamide], the IC50 in assay [1] and in assay [2] was less than 100 nM throughout.
Regarding `CC(=O)N1CCN(S(=O)(=O)c2ccc(Br)cc2)[C@@H](C(=O)NCc2ccc(C(C)C)cc2)C1` [Example 430, (R)-4-acetyl-1-(4-bromo-benzenesulfonyl)-piperazine-2-carboxylic acid 4-isopropyl-benzylamide], the IC50 in assay [1] and in assay [2] was 100 to 1000 nM throughout.
As for `COC(=O)c1cnc(N2CCN(S(=O)(=O)c3ccc(C(F)(F)F)cc3)[C@@H](C(=O)NCc3ccc(C(C)C)cc3)C2)c(C)n1` [Example 431, (R)-3-(4-isopropyl-benzylcarbamoyl)-3′-methyl-4-(4-trifluoromethyl-benzenesulfonyl)-3,4,5,6-tetrahydro-2H-[1,2′]bipyrazinyl-5′-carboxylic acid methyl ester], the IC50 in assay [1] and in assay [2] was 100 to 1000 nM throughout.
On to `CCCc1ccc(CNC(=O)[C@H]2CN(c3cnc(C(=O)O)cn3)CCN2S(=O)(=O)c2ccc(OC(F)(F)F)cc2)c(C)c1` [Example 432, (R)-3-(2-methyl-4-propyl-benzylcarbamoyl)-4-(4-trifluoromethoxy-benzenesulfonyl)-3,4,5,6-tetrahydro-2H-[1,2′]bipyrazinyl-5′-carboxylic acid], for which the IC50 in assay [1] and in assay [2] was less than 100 nM each time.
For `CC(=O)N1CCN(S(=O)(=O)c2ccc(C(C)C)cc2)[C@@H](C(=O)NCCc2c[nH]cn2)C1` [Example 433, (R)-4-acetyl-1-(4-isopropyl-benzenesulfonyl)-piperazine-2-carboxylic acid [2-(1H-imidazol-4-yl)-ethyl]-amide hydrochloride], the IC50 in assay [1] and in assay [2] was more than 1000 nM in each case.
Turning to `CCCc1ccc(S(=O)(=O)N2CCN(c3nc(C(=O)O)c(C)s3)C[C@@H]2C(=O)NCc2ccc(C(C)C)cc2)cc1` [Example 434, 2-[(R)-3-(4-isopropyl-benzylcarbamoyl)-4-(4-propyl-benzenesulfonyl)-piperazin-1-yl]-5-methyl-thiazole-4-carboxylic acid], the IC50 in assay [1] and in assay [2] was less than 100 nM throughout.
Take `CCCc1ccc(CNC(=O)[C@H]2CN(c3cnc(C(=O)O)cn3)CCN2S(=O)(=O)c2ccc3c(c2)CCCCC3)cc1` [Example 435, (R)-3-(4-propyl-benzylcarbamoyl)-4-(6,7,8,9-tetrahydro-5H-benzenecycloheptene-2-sulfonyl)-3,4,5,6-tetrahydro-2H-[1,2′]bipyrazinyl-5′-carboxylic acid]: the IC50 in assay [1] and in assay [2] was less than 100 nM in each case.
For `CCCc1ccc(CNC(=O)[C@H]2CN(C(=O)Nc3ccncc3)CCN2S(=O)(=O)c2ccc(OC(F)(F)F)cc2)cc1` [Example 436, (R)-4-(4-trifluoromethoxy-benzenesulfonyl)-piperazine-1,3-dicarboxylic acid 3-(4-propyl-benzylamide) 1-pyridin-4-ylamide], the IC50 in assay [1] and in assay [2] was less than 100 nM in each case.
Regarding `CCCc1ccc(CNC(=O)[C@H]2CN(C(=O)Nc3nncs3)CCN2S(=O)(=O)c2ccc(OC(F)(F)F)cc2)cc1` [Example 437, (R)-4-(4-trifluoromethoxy-benzenesulfonyl)-piperazine-1,3-dicarboxylic acid 3-(4-propyl-benzylamide) 1-[1,3,4]thiadiazol-2-ylamide], the IC50 in assay [1] and in assay [2] was less than 100 nM in each case.
Regarding `CCCc1ccc(CNC(=O)[C@H]2CN(c3cnc(C(=O)O)cn3)CCN2S(=O)(=O)c2ccc(CCC)s2)cc1` [Example 438, (R)-3-(4-propyl-benzylcarbamoyl)-4-(5-propyl-thiophene-2-sulfonyl)-3,4,5,6-tetrahydro-2H-[1,2′]bipyrazinyl-5′-carboxylic acid], the IC50 in assay [1] and in assay [2] was less than 100 nM each time.
Take `CC(C)c1ccc(CNC(=O)[C@H]2CN(c3cc(C(=O)O)nn3C)CCN2S(=O)(=O)c2ccc(C(F)(F)F)cc2)cc1` [Example 439, 5-[(R)-3-(4-isopropyl-benzylcarbamoyl)-4-(4-trifluoromethyl-benzenesulfonyl)-piperazin-1-yl]-1-methyl-1H-pyrazole-3-carboxylic acid]: the half-inhibitory concentration (IC50) is 100 to 1000 nM in assay [1] and more than 1000 nM in assay [2].
For `CCCc1ccc(CNC(=O)[C@H]2CN(c3cnc(C(=O)O)cn3)CCN2S(=O)(=O)c2ccc(CCC)cc2)cc1` [Example 440, (R)-4-(4-propyl-benzenesulfonyl)-3-(4-propyl-benzylcarbamoyl)-3,4,5,6-tetrahydro-2H-[1,2′]bipyrazinyl-5′-carboxylic acid], in that order: less than 100 nM and less than 100 nM.
In the case of `CCCc1ccc(S(=O)(=O)N2CCN(c3cnc(C(=O)O)cn3)C[C@@H]2C(=O)NCc2ccc(CCC)cc2C)cc1` [Example 441, (R)-3-(2-methyl-4-propyl-benzylcarbamoyl)-4-(4-propyl-benzenesulfonyl)-3,4,5,6-tetrahydro-2H-[1,2′]bipyrazinyl-5′-carboxylic acid], the IC50 in assay [1] and in assay [2] was less than 100 nM each time.
As to `CCOc1ccc(CNC(=O)[C@H]2CN(c3nc(C)c(C(=O)O)s3)CCN2S(=O)(=O)c2ccc(OC(F)(F)F)cc2)cc1` [Example 442, 2-[(R)-3-(4-ethoxy-benzylcarbamoyl)-4-(4-trifluoromethoxy-benzenesulfonyl)-piperazin-1-yl]-4-methyl-thiazole-5-carboxylic acid], the results for the IC50 in assay [1] and in assay [2] were less than 100 nM and 100 to 1000 nM, respectively.
As for `CC(C)c1ccc(CNC(=O)[C@H]2CN(c3cnc(C(=O)O)c(N)n3)CCN2S(=O)(=O)c2ccc(C(F)(F)F)cc2)cc1` [Example 443, (R)-6′-amino-3-(4-isopropyl-benzylcarbamoyl)-4-(4-trifluoromethyl-benzenesulfonyl)-3,4,5,6-tetrahydro-2H-[1,2′]bipyrazinyl-5′-carboxylic acid], the 50% inhibitory concentration (IC50) in assay [1] was less than 100 nM; in assay [2], 100 to 1000 nM.
Regarding `CCCc1ccc(CNC(=O)[C@H]2CN(c3nc(C(F)(F)F)c(C(=O)OCC)s3)CCN2S(=O)(=O)c2ccc(OC(F)(F)F)cc2)cc1` [Example 444, 2-[(R)-3-(4-propyl-benzylcarbamoyl)-4-(4-trifluoromethoxy-benzenesulfonyl)-piperazin-1-yl]-4-trifluoromethyl-thiazole-5-carboxylic acid ethyl ester], the IC50 in assay [1] and in assay [2] was 100 to 1000 nM throughout.
For `CC(C)c1ccc(CNC(=O)[C@H]2CN(c3cc(C(=O)O)n(C)n3)CCN2S(=O)(=O)c2ccc(C(F)(F)F)cc2)cc1` [Example 445, 5-[(R)-3-(4-isopropyl-benzylcarbamoyl)-4-(4-trifluoromethyl-benzenesulfonyl)-piperazin-1-yl]-2-methyl-2H-pyrazole-3-carboxylic acid], the IC50 in assay [1] was less than 100 nM; in assay [2] it was 100 to 1000 nM.
For `Cc1nc(N2CCN(S(=O)(=O)c3ccc(C(F)(F)F)cc3)[C@@H](C(=O)NCc3ccc(C(C)C)cc3)C2)sc1C(=O)NS(C)(=O)=O` [Example 446, (R)-4-(5-methanesulfonylaminocarbonyl-4-methyl-thiazol-2-yl)-1-(4-trifluoromethyl-benzenesulfonyl)-piperazine-2-carboxylic acid 4-isopropyl-benzylamide], in that order: less than 100 nM and 100 to 1000 nM.
For `CCCc1ccc(CNC(=O)[C@H]2CN(c3nc(C)c(C(=O)NS(C)(=O)=O)s3)CCN2S(=O)(=O)c2ccc(OC(F)(F)F)cc2)cc1` [Example 447, (R)-4-(5-methanesulfonylaminocarbonyl-4-methyl-thiazol-2-yl)-1-(4-trifluoromethoxy-benzenesulfonyl)-piperazine-2-carboxylic acid 4-propyl-benzylamide], in that order: less than 100 nM and 100 to 1000 nM.
For `CCC(F)(F)c1ccc(CNC(=O)[C@H]2CN(c3nc(C)c(C(=O)O)s3)CCN2S(=O)(=O)c2ccc(OC(F)(F)F)cc2)cc1` [Example 448, 2-[(R)-3-[4-(1,1-difluoro-propyl)-benzylcarbamoyl]-4-(4-trifluoromethoxy-benzenesulfonyl)-piperazin-1-yl]-4-methyl-thiazole-5-carboxylic acid], in that order: less than 100 nM and less than 100 nM.

The term IC50 denotes the concentration that inhibits the measured activity by half.

The record behind these values is patent US8017612B2, “Piperazine compound and use thereof as a HCV polymerase inhibitor” (priority 2006, dated 2011).
